From the CATMoS acute toxicity set (Mansouri et al. 2021)

Assay: GHS categories as the set defines them, by LD50: 1 up to 5, 2 up to 50, 3 up to 300, 4 up to 2000, 5 above 2000 mg/kg
Conditions: rat; in vivo; po

| SMILES | GHS category |
| --- | --- |
| CCCNC(=O)C(Cc1ccc(OCCN(CC)CC)cc1)NC(=O)c1ccccc1 (centres undefined) | 4 |
| CCCc1c(Cc2ccc(-c3ccccc3-c3nn[nH]n3)cc2)c(=O)nc2[nH][nH]c(=O)n12 | 4 |
| CCCC(=O)c1ccc2[nH]c(=O)oc2c1 | 5 |
| O=C1CCCCCN1C(=O)Nc1ccc(Cc2ccc(NC(=O)N3CCCCCC3=O)cc2)cc1 | 5 |
| O=C(O)c1ccccc1C(=O)c1ccc(-c2ccccc2)cc1 | 5 |
| C=CCCCCCCCCCO | 5 |
| CN1CCN(c2c(F)cc3c(=O)c(C(=O)O)cn(CCF)c3c2F)CC1 | 5 |
| O=C1CC(=O)NC(=S)N1 | 5 |
| COc1ccc([C@@H]2Sc3ccccc3NC(=O)[C@@H]2O)cc1 | 5 |
| CC(C)OC(=O)Nc1nc(N2CC=CCC2)cc2nc(=O)on12 | 5 |
| CC(=O)c1ccc2c(c1)oc(=O)n2C | 5 |
| CC1=CC[C@H](CC=O)C1(C)C | 5 |
| CCCCCCCCOc1ccccc1C(=O)Nc1ccc(C(=O)OCC[N+](C)(CC)CC)cc1 | 4 |
| CC1CC(OC(=O)C(C)(C)Oc2ccccc2Cl)CC(C)(C)C1 (centres undefined) | 5 |
| C[C@@H]1O[C@@H](O[C@@H]2[C@@H](O)[C@H](OCCc3ccc(O)c(O)c3)O[C@H](CO)[C@H]2OC(=O)C=Cc2ccc(O)c(O)c2)[C@H](O)[C@H](O)[C@H]1O | 5 |
| CO[Si](CCCCl)(OC)OC | 5 |
| O=C(O)c1cc(O)[nH]c(=O)c1 | 5 |
| C=CC(=O)OCCCCCC(C)C | 5 |
| CCCCCCCCCCCCCCCCCC(=O)NP(=O)(OC)SC (centres undefined) | 3 |
| CN1CCN(CC(=O)N(C)c2ccc(N)cc2)CC1 | 5 |
| O=C(Nc1ccc(Cl)cc1C(O)c1ccccc1)c1ccncc1 (centres undefined) | 5 |
| Cn1c(=O)oc2cc(C(=O)c3cccs3)ccc21 | 5 |
| C[C@H]1CO[C@@](Cn2cncn2)(c2cc3cc(Cl)cc(Cl)c3o2)O1 | 4 |
| COc1ccc2c(c1)CCN(c1ccccc1)C2c1ccc(Cl)cc1 (centres undefined) | 4 |

| SMILES | GHS category |
| --- | --- |
| CCCCn1cc2c3c(cccc31)C1=C[C@@H](CO)CN(C)[C@@H]1C2 | 4 |
| COc1ccc2cccc(CC#N)c2c1 | 5 |
| CCCCCCCCCC(C)C=O (centres undefined) | 5 |
| COc1c2ccoc2cc2oc(=O)ccc12 | 5 |
| N[C@H](C(=O)O)c1ccc(O)cc1 | 5 |
| CCC[C@H]1CCO[C@@H](C)S1 | 5 |
| CC(C)CCCCCCCCCCOC(=O)CCCCC(=O)OCCCCCCCCCCC(C)C | 5 |
| CCOC(=O)c1cc(=O)c2c(OCC(O)COc3cccc4oc(C(=O)OCC)cc(=O)c34)cccc2o1 | 5 |
| CC(C)(c1ccccc1)C(C)(C)c1ccccc1 | 5 |
| CCOC(=O)c1cnn(-c2cccc(C)c2)c1S(C)(=O)=O | 4 |
| CC12CCC3c4ccc(OC(=O)c5ccccc5)cc4CCC3C1CCC2OC(=O)COC(=O)CCCc1ccc(NCCCl)cc1 (centres undefined) | 5 |
| CCOC(=O)CC#N | 5 |
| CC1CC(C)C(C)C(C)C1 (centres undefined) | 5 |
| CCOC(C)OCCc1ccccc1 (centres undefined) | 5 |
| Cc1cccc(OC(=O)c2cc(Cl)ccc2OC(N)=O)c1 | 5 |
| CN1CC(CO)CC2c3cccc4c3c(cn4C(C)(C)C)CC21 (centres undefined) | 4 |
| Nc1nc2c(s1)CC(N)CC2 (centres undefined) | 4 |
| N#Cc1c[nH]cc1-c1cccc2c1OC(F)(F)O2 | 5 |
| COc1ccc2c(c1)CC[C@@H]1[C@@H]2CC[C@]2(C)C(=O)CC[C@@H]12 | 5 |
| CC[C@H](C)C(=O)O[C@H]1C[C@@H](C)C=C2C=C[C@H](C)[C@H](CC[C@@H]3C[C@@H](O)CC(=O)O3)[C@H]21 | 5 |
| O=C(O)CCCCCCCCCCC(=O)O | 5 |
| C/C=C/C=C/CCCCCCCO | 5 |
| CC1=CCC(C=CC(C)C(C)O)C1(C)C (centres undefined) | 4 |
| C=COCCOCCOCCOC=C | 5 |

| SMILES | GHS category |
| --- | --- |
| CCCCCCc1ccc(OP(=O)(Oc2ccccc2)Oc2ccccc2)cc1 | 5 |
| OC1(c2ccc(-c3ccccc3)cc2)c2ccccc2C2=NCCN21 (centres undefined) | 4 |
| O=C(O)CN(CCCN(C(=O)O)C(=O)O)C(=O)O | 5 |
| Cn1nnnc1SCCCC(=O)NC1CCCCC1 | 4 |
| C=C(C)C(=O)NC(C)C | 5 |
| CCCCCCCCCCCCCCC | 5 |
| CC(C)OC(=O)C(C)N(C(=O)c1ccccc1)c1ccc(F)c(Cl)c1 (centres undefined) | 5 |
| CCCCOC(=O)Cc1ccccc1 | 5 |
| CCCCC1(CC)COC(Cn2cncn2)(c2cc3ccccc3o2)OC1 (centres undefined) | 4 |
| CCOP(=S)(Oc1cnc(C(C)(C)C)nc1)OC(C)C (centres undefined) | 1 |
| Clc1ccc2c(n1)C(c1ccccc1Cl)=NCc1nncn1-2 | 5 |
| CCCCCCCN(CCCCCCC)CC(O)c1cc2ccccc2c2cc(Br)ccc12 (centres undefined) | 5 |
| CC(C)[N+](C)(CCC(C(N)=O)(c1ccccc1)c1ccccc1)C(C)C | 5 |
| CO[C@@]1(NC(=O)C(C(=O)O)c2ccc(O)cc2)C(=O)N2C(C(=O)O)=C(CSc3nnnn3C)CO[C@@H]21 (some centres undefined) | 5 |
| C=CCCCCCCCCC(OCC=C(C)CCC=C(C)C)OCC=C(C)CCC=C(C)C (centres undefined) | 5 |
| Cc1cc(C2(c3ccc(O)c(C)c3)CCCCC2)ccc1O | 5 |
| COc1ccc2c(c1)CCN(c1ccccc1)C2c1cccc(Cl)c1 (centres undefined) | 4 |
| CCCC(=O)N(C)C(=O)Oc1cccc2c1OCO2 | 4 |
| CCCCCCCCCCOC | 5 |
| COc1cc2c(cc1OC)-c1c(C)c3ccc(OC)c(OC)c3c[n+]1CC2 | 4 |
| CCCCCOc1ccc(-c2ccc(C#N)cc2)cc1 | 5 |
| CO/C=C(/C(=O)OC)c1ccccc1Oc1cc(Oc2ccccc2C#N)ncn1 | 5 |
| CCCc1nc(C)n2[nH]c(=O)nc2c1Cc1ccc(-c2ccccc2-c2nn[nH]n2)cc1 | 4 |
| CCCC(=O)OC(C)(C)Cc1ccccc1 | 5 |

| SMILES | GHS category |
| --- | --- |
| NC(=O)NCCO | 5 |
| C=CC/C=C/C/C=C/C/C=C/C | 5 |
| Cc1ccc2c(c1)C(=O)C(C)C2 (centres undefined) | 5 |
| CC1=C(C(=O)O)N2C(=O)[C@@H](NC(=O)[C@H](N)C3=CCC=CC3)[C@H]2SC1 | 5 |
| O=C(O)c1cc(O)ccc1Nc1ccc(O)c(C(F)(F)F)c1 | 4 |
| CCCCCCCCCCCCCCCCCC(=O)OCCOC(=O)CCCCCCCCCCCCCCCCC | 5 |
| COC(=O)CCCCCCCCC(=O)OC | 5 |
| C=CCOC(=O)Nc1nc(N2CC=CCC2)cc2nc(=O)on12 | 5 |
| CCOC(=O)OCCOc1cc(O)c2c(c1N)C(=O)c1ccccc1C2=O | 5 |
| CC(=O)C=CC=C(C)CCC=C(C)C | 5 |
| O=c1[nH]c(=O)n(C2OC(CO)C(O)C2O)cc1C=CBr (centres undefined) | 5 |
| FC(F)(F)c1cccc(-n2nc(OCCN3CCCCCC3)c3cccnc32)c1 | 4 |
| CN(C)C1C(=O)C(=C(O)NCN2CCCC2C(=O)O)C(=O)C2(O)C(=O)C3=C(O)c4c(O)cccc4C(C)(O)C3CC12 (centres undefined) | 5 |
| O=C1OC(=O)c2ccc3c4ccc5c6c(ccc(c7ccc1c2c73)c64)C(=O)OC5=O | 5 |
| CCOC(=O)c1ccc(NC(=O)CC)cc1NC(=O)c1ccc(C(=O)O)cc1 | 5 |
| Brc1c(Br)c(Br)c(CCc2c(Br)c(Br)c(Br)c(Br)c2Br)c(Br)c1Br | 5 |
| OCC(CO)(CO)COCC(CO)(CO)CO | 5 |
| C=C1CC[C@H](O)C/C1=C/C=C1\CCC[C@]2(C)[C@@H]([C@H](C)CC[C@@H](O)C(C)(C)O)CC[C@@H]12 | 2 |
| CCc1c(Cc2ccc(-c3ccccc3-c3nn[nH]n3)cc2)c(=O)nc2nc[nH]n12 | 4 |
| CC(C)OC(=O)N[C@H](C(=O)N[C@H](C)c1nc2ccc(F)cc2s1)C(C)C | 5 |
| Cc1ccc(-c2c(Cl)nc(C#N)n2S(=O)(=O)N(C)C)cc1 | 5 |
| NCC1(CC(=O)O)CCCCC1 | 5 |
| Cc1cc(OP(Oc2cc(C)c(C(C)(C)C)cc2C(C)(C)C)Oc2cc(C)c(C(C)(C)C)cc2C(C)(C)C)c(C(C)(C)C)cc1C(C)(C)C | 5 |
| CC1CC(OC(=O)COc2ccc(Cl)cc2)CC(C)(C)C1 (centres undefined) | 5 |

| SMILES | GHS category |
| --- | --- |
| CCCCN(CCCC)C(=S)SCSC(=S)N(CCCC)CCCC | 5 |
| CCCC/C=C\CCCCCCCCCC=O | 5 |
| CC(C)c1ccc(C(C)(C)C(C)(C)c2ccc(C(C)C)cc2)cc1 | 5 |
| CCCCCCCCCCCCCCCNCCCCCCCCCCCCCCC | 5 |
| COc1cc(C)c(C(=O)c2c(OC)ccc(Br)c2C)c(OC)c1OC | 5 |
| CC(C)=CCCC(C)CCOC(=O)Cc1ccccc1 (centres undefined) | 5 |
| COCC1COC(Cn2cncn2)(c2cc3ccccc3o2)O1 (centres undefined) | 4 |
| CN1C(CSCC(F)(F)F)Nc2cc(Cl)c(S(N)(=O)=O)cc2S1(=O)=O (centres undefined) | 2 |
| O=C(O)CN1C(=O)c2cccc3cccc(c23)C1=O | 5 |
| CCCCCCCCCCCCCCOc1ccc(C(=O)O)o1 | 5 |
| C=C[C@](C)(O)CC[C@@H]1[C@@]2(C)CCCC(C)(C)[C@@H]2CC[C@@]1(C)O | 5 |
| Cc1ccc(Nc2ccc(Nc3ccc(C)cc3S(=O)(=O)O)c3c2C(=O)c2c(O)ccc(O)c2C3=O)c(S(=O)(=O)O)c1 | 5 |
| Cc1ccc2[nH]c3cc4c(=O)c5cc(C)ccc5[nH]c4cc3c(=O)c2c1 | 5 |
| Oc1ccc(-c2ccccc2)cc1 | 5 |
| O=C(Nc1cccc2c(=O)c3c(ccc4c5cc(NC(=O)c6ccccc6)c6c(=O)c7ccccc7c(=O)c6c5[nH]c43)c(=O)c12)c1ccccc1 | 5 |
| COc1ccc(Cl)cc1NC(=O)CC(C)=O | 5 |
| CC(OC(=O)ON1C(=O)CCC1=O)OC(=O)C(C)C (centres undefined) | 4 |
| CC1CCCCCCCCCCCCC(=O)C1 (centres undefined) | 5 |
| CCCCCCCCCCCCCC(=O)OCCCC | 5 |
| CCN(CC)CCNC(C(=O)OCCC(C)C)c1ccccc1 (centres undefined) | 4 |
| O=CN(O)CCCP(=O)(O)O | 5 |
| CN1C2=CC(=O)C(=NNC(N)=O)C=C2CC1S(=O)(=O)O (centres undefined) | 5 |
| CCC(c1ccc(O)cc1)C(C#N)c1ccc(O)cc1 (centres undefined) | 5 |
